Data as given in a melting point compilation (Tetko et al.).

With Nc1cc(-c2ccccc2)nn1CCO the melting point was 142 to 144 °C.
CS(=O)(=O)C1(C(=O)O)CCCC1 showed a melting point of 117 to 119 °C.
NC(Cc1nc2ccccc2[nH]1)=NO gave a melting point of 138 to 140 °C.
Work on O=C(O)c1cccc(C(O)C(=O)O)c1 (centres undefined) yielded a melting point of 189 to 191 °C.
In the case of CN(C)C(=O)c1ccc(Cl)nc1, the melting point is reported as 67 to 69 °C.
For COc1cc(C(=O)O)c([N+](=O)[O-])cc1OCC#N, the melting point was 149 to 151 °C.
Compound O=C(O)c1ccc2nncn2c1 has a melting point of 315 to 317 °C.
Compound COc1ccc(S(=O)(=O)N2CCCCCC2)cc1N has a melting point of 118 to 119 °C.
In the case of OCc1ccc2c(c1)NCC2, the melting point is reported as 49 to 51 °C.
In the case of COC(=O)c1c(C(=O)OC)c(-c2cccc(N)c2)n2c1CCC2, the melting point is reported as 166 to 168 °C.
In the case of CC(C)c1cnc(-c2ccc([N+](=O)[O-])cc2)o1, the melting point is reported as 103 to 105 °C.
Work on CC(=O)CCc1ccc(OCCC(=O)O)cc1 yielded a melting point of 102 to 104 °C.
With O=C(O)c1ccc(CS(=O)(=O)c2ccccc2)o1 the melting point was 180 to 182 °C.
With Cc1ccc(-c2nnc(C(C)Cl)o2)cc1 (centres undefined) the melting point was under 17 °C.
For CCC1(c2ccccc2)NC(=O)NC1=O (centres undefined), the melting point was 203 to 205 °C.
Compound O=C(O)CCNS(=O)(=O)c1cccc([N+](=O)[O-])c1 has a melting point of 134 to 136 °C.
Compound N#Cc1cccc(CS(=O)(=O)NCC(=O)O)c1 has a melting point of 158 to 160 °C.
COc1cc(OC)c(C(=O)NO)cc1OC showed a melting point of 187 to 189 °C.
COC(=O)c1cn(C)c(-c2ccc(N)cc2)c1C(=O)OC gave a melting point of 181 to 183 °C.
In the case of O=C(Nc1ccc2c(c1)OCCO2)OCC(F)(F)F, the melting point is reported as 103 to 105 °C.
In the case of CC(C)OCc1cc(C(=O)O)ccc1F, the melting point is reported as 84 to 86 °C.
Work on Cc1ccc(C(=O)NCCN)cc1F yielded a melting point of 71 to 73 °C.
CC(C)c1ccc(C(=O)CC#N)cc1 showed a melting point of 91 to 93 °C.
Work on CCCOc1nc2ccccc2cc1/C=C/C(=O)O yielded a melting point of 159 to 161 °C.
CNC(=O)NCC(=O)O showed a melting point of 138 to 140 °C.
Compound NC(=O)c1cc(N2CCCCC2)ccc1N has a melting point of 168 to 170 °C.
Compound Brc1ccc(Cn2cccn2)cc1 has a melting point of 43 to 45 °C.
In the case of NC(Cn1ccccc1=O)=NO, the melting point is reported as 211 to 213 °C.
With CN1C(=O)CCC(C(=O)O)C1c1cccc(Cl)c1 (centres undefined) the melting point was 182 to 184 °C.
Work on Cc1nn(CCCl)c(C)c1C=O yielded a melting point of 49 to 51 °C.
O=C(CCl)NC1CCC(C(F)(F)F)CC1 (centres undefined) gave a melting point of 65 to 67 °C.
In the case of O=C(O)CCC(=O)NCC(=O)c1ccccc1F, the melting point is reported as 156 to 158 °C.
For Cc1ccc2ncc(C(=O)O)c(=O)n2c1, the melting point was 259 to 261 °C.
N#Cc1cc(F)ccc1N gave a melting point of 92 to 96 °C.
In the case of Cc1ccc(-c2csc(S)n2)cc1, the melting point is reported as 192 to 194 °C.
NC(=O)c1ccc(-c2nc(CCl)cs2)cc1 gave a melting point of 177 to 179 °C.
Work on CC(=O)Nc1ccc(NC(=O)CC#N)cc1 yielded a melting point of 305 to 307 °C.
Compound CC(=O)c1c(C)[nH]c(C(=O)C(C)Cl)c1C (centres undefined) has a melting point of 152 to 154 °C.
Cc1cc(=O)oc2cc(OCCBr)ccc12 gave a melting point of 102 to 104 °C.
For NC(=O)CCc1ccc([N+](=O)[O-])cc1[N+](=O)[O-], the melting point was 115 to 117 °C.
Compound Nc1ncc(Cc2ccccc2F)s1 has a melting point of 97 to 99 °C.
Compound COC(=O)c1ncon1 has a melting point of 34 to 36 °C.
COc1ccc2c(c1)c(C(=O)O)c(C)n2C1CCCCC1 showed a melting point of 137 to 139 °C.
O=C(O)c1ccc(=O)n(-c2ccccc2F)c1 gave a melting point of 249 to 251 °C.
O=C(O)c1cc(Br)nn1-c1ccc(F)cc1 gave a melting point of 177 to 179 °C.
For CC(=O)c1ccc(C(=O)O)c(F)c1, the melting point was 159 to 161 °C.
CN1CCN(S(=O)(=O)c2ccc(Cl)c([N+](=O)[O-])c2)CC1 showed a melting point of 276 to 278 °C.
Work on O=C(O)CCc1ccoc1 yielded a melting point of 63 to 65 °C.
Compound COc1ccc(C(C)=O)cc1-c1ccccc1 has a melting point of 91 to 93 °C.
For O=C(O)Cc1cc(Cl)ccc1Br, the melting point was 101 to 103 °C.
CCCn1c(S)nc2cc(S(N)(=O)=O)ccc21 gave a melting point of 190 to 194 °C.
In the case of NC(=O)c1cn[nH]c1N, the melting point is reported as 184 to 186 °C.
O=C(O)c1cc(Br)ccc1F showed a melting point of 179 to 182 °C.
CN(C)c1ccnc(N)n1 showed a melting point of 157 to 159 °C.
O=C(O)c1c(O)cc(=O)n2c1CCC2 showed a melting point of 236 to 238 °C.
In the case of O=Cc1ccc(OCC(=O)Nc2ccc(Cl)cc2)cc1, the melting point is reported as 139 to 141 °C.
Compound Nc1ccc(-c2nc3ccccc3s2)cc1N has a melting point of 165 to 169 °C.
Work on O=C(CCC1CCCCC1)Nc1ccc(C(=O)O)c(O)c1 yielded a melting point of 209 to 211 °C.
For NS(=O)(=O)c1c(Br)cc(F)cc1Br, the melting point was 174 to 176 °C.
In the case of c1ccc(Nc2ccccn2)cc1, the melting point is reported as 78 to 82 °C.
For CCNC(=O)c1cccc(C#N)c1, the melting point was 99 to 101 °C.
Work on NC(=O)c1ccnc(F)c1 yielded a melting point of 175 to 177 °C.
With O=C1C=CC=NC1=C(O)Nc1ccncc1 the melting point was 164 to 166 °C.
In the case of O=Cc1cscn1, the melting point is reported as 61 to 63 °C.
Nc1ccccc1CC(F)(F)F showed a melting point of 44 to 46 °C.
For CCc1nc(C(=O)O)c[nH]1, the melting point was 239 to 241 °C.
O=C(O)c1cnoc1 gave a melting point of 99 to 101 °C.
For CS(=O)(=O)c1snc(O)c1C#N, the melting point was 235 to 237 °C.
O=C1Nc2cc3c(cc2C1=O)OCCO3 showed a melting point of 210 to 212 °C.
For Cc1sc2nc(S)n(C)c(=O)c2c1C, the melting point was 288 to 290 °C.
Work on CSc1cc(N)ccn1 yielded a melting point of 79 to 81 °C.
For COC(=O)C1CCN(C(=O)c2ccc(Cl)c(Cl)c2)CC1, the melting point was 103 to 105 °C.
Cc1ccnc(S(N)(=O)=O)c1 showed a melting point of 163 to 165 °C.
For CN(C)S(=O)(=O)c1cc(C(=O)O)n(C)c1, the melting point was 159 to 161 °C.
In the case of S=C=Nc1ccc2ccccc2c1, the melting point is reported as 59 to 61 °C.
Work on CNc1nc(S)nc2ccccc12 yielded a melting point of 220 to 222 °C.
Work on Nc1cncc(Br)c1 yielded a melting point of 65 to 69 °C.
In the case of Cc1ccc(C)c(SCc2cccc(C(=O)O)c2)c1, the melting point is reported as 129 to 131 °C.
O=C(O)c1ccn(-c2ccc(Cl)c(Cl)c2)n1 gave a melting point of 191 to 193 °C.
Compound Nc1ncn(Cc2ccccc2)n1 has a melting point of 130 to 132 °C.
With CCc1cc(N)c2cc(N)ccc2n1 the melting point was 151 to 153 °C.
Work on Nc1nc(-c2ccc(F)cc2)cs1 yielded a melting point of 111 to 113 °C.
Compound CC(C)Oc1ccc(S(=O)(=O)Cl)c2ccccc12 has a melting point of 93 to 95 °C.
Work on Cc1c(N)cccc1C(=O)N1CCSCC1 yielded a melting point of 155 to 157 °C.
NC(=S)c1ccc(N)cc1 gave a melting point of 189 to 191 °C.
For COc1ccc(-c2nnc(SCC(=O)O)o2)cc1, the melting point was 140 to 143 °C.
O=C(O)c1ccccc1NCCC1=CCCCC1 showed a melting point of 129 to 131 °C.
Work on Nc1c(Cl)nc2ccccc2c1N yielded a melting point of 178 to 180 °C.
In the case of CC(=O)c1ccc(S(=O)(=O)N(C)C)cc1, the melting point is reported as 99 to 101 °C.
For Clc1ncnc2c1oc1ccccc12, the melting point was 144 to 146 °C.
Cc1ccc(-n2c(S)nnc2-c2ccncc2)cc1C showed a melting point of 260 to 262 °C.
With Sc1nnc(CCc2ccccc2)o1 the melting point was 92 to 94 °C.
CN(C)CCNC(=O)Cc1ccc(N)cc1 showed a melting point of 145 to 147 °C.
In the case of CCOC(=O)C(NC(=O)c1ccccc1)C(=O)OCC, the melting point is reported as 62 to 64 °C.
Work on Nc1cccc(OCC(F)(F)F)c1 yielded a melting point of 34 to 36 °C.
Work on O=S1(=O)CCCN1c1ccccc1Br yielded a melting point of 115 to 117 °C.
COc1ccccc1Nc1nc(-c2ccc(C)cc2)cs1 gave a melting point of 143 to 145 °C.
For CN1CCC(=O)Nc2cc(F)ccc21, the melting point was 143 to 145 °C.
For NS(=O)(=O)c1ccc2c(c1)C(=O)C(=O)N2, the melting point was 258 to 260 °C.
Compound Nc1ccccc1OCC(=O)N1CCOCC1 has a melting point of 111 to 113 °C.
For CNC1(C(=O)O)CCCCC1, the melting point was 309 to 311 °C.
Compound CCN(CC)S(=O)(=O)c1ccc(C(=O)NCC(=O)O)cc1 has a melting point of 143 to 145 °C.
Compound CC1(C2CCNCC2)NC(=O)NC1=O (centres undefined) has a melting point of 243 to 245 °C.
For CNC(c1cccnc1)c1ccc(Cl)cc1Cl (centres undefined), the melting point was 111 to 113 °C.
